Source: patent publication US8735384B2, “Amino heteroaryl compounds as beta-secretase modulators and methods of use” (Amgen Inc., priority 2010, dated 2014)
Like-named read-outs stand apart in the source and are kept apart here.

Key:
[1] = test system: Aβ40 in conditioned medium of cells stably expressing Amyloid Precursor Protein (APP); assay: In vitro BACE cell-based assay (HEK cell assay), Aβ40 sandwich ELISA; conditions: inhibition of Aβ40, 24 h incubation, read-out: HEK cell assay (IC50 class)
How it was run: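 APP-stably expressing cells (40K/well) grown 24 h, then treated 24 h with 10-point doses from 100 μM or 10 μM top (0.1% DMSO). Secreted Aβ40 quantified by sandwich ELISA (pAb40 capture, biotinylated 6E10 detection, europium time-resolved fluorescence); IC50 from percent inhibition versus concentration.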

BACE1 = BACE1 (Homo sapiens, UniProt P56817); assay: In vitro enzymatic BACE FRET assay; assay type: biochemical; conditions: beta secretase enzyme 0.2 nM, FRET substrate 50 nM, pH 4.2; read-out: BACE1 FRET assay (IC50 class)
How it was run: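 Beta-secretase (0.2 nM) was pre-incubated 1 h with serially diluted inhibitor in 0.05 M acetate pH 4.2, 10% DMSO, 100 uM genapol. Then 50 nM quenched peptide FRET substrate was added for 1 h. The reaction was stopped with Tris to neutral pH and fluorescence read ([…]).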

Chain of BACE1 (P56817 46-501, species assumed): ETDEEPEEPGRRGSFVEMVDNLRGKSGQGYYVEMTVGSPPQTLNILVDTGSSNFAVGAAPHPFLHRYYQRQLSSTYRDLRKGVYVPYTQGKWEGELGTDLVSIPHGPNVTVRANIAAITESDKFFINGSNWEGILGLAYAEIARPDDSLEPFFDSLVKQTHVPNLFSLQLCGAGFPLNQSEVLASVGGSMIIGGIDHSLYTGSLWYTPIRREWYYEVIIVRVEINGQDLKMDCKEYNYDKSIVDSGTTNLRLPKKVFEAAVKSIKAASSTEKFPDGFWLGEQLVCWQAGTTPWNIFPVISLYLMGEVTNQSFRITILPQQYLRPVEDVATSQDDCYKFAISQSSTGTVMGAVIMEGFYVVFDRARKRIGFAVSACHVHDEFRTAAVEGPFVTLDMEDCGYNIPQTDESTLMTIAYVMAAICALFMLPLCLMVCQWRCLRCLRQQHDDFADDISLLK

SMILES	IC50 ([1]; Homo sapiens, HEK293, 24 h)	IC50 (BACE1)	IC50 [1]
CC=CC(=O)c1cccc(C)c1-c1ccc2nc(N)c(N3CCOCC3)cc2c1 [Example 183, 1-(2-(2-amino-3-morpholinoquinolin-6-yl)-3-methylphenyl)but-2-en-1-one]	1010 to 5000 nM	100 to 500 nM	–
Cc1cccc(C(=O)C2CCCC2)c1-c1ccc2nc(N)c(N3CCOCC3)cc2c1 [Example 184, (2-(2-amino-3-morpholinoquinolin-6-yl)-3-methylphenyl)(cyclopentyl)methanone]	501 to 1000 nM	< 100 nM	–
Cc1cccc(C(=O)Cc2ccccc2)c1-c1ccc2nc(N)c(N3CCOCC3)cc2c1 [Example 185, 1-(2-(2-amino-3-morpholinoquinolin-6-yl)-3-methylphenyl)-2-phenylethanone]	1010 to 5000 nM	< 100 nM	–
Cc1cccc(C(=O)C2CC2)c1-c1ccc2nc(N)c(N3CCOCC3)cc2c1 [Example 186, (2-(2-amino-3-morpholinoquinolin-6-yl)-3-methylphenyl)(cyclopropyl)methanone]	1010 to 5000 nM	100 to 500 nM	–
COc1cccnc1C(=O)c1cccc(C)c1-c1ccc2nc(N)c(N3CCOCC3)cc2c1 [Example 187, (2-(2-amino-3-morpholinoquinolin-6-yl)-3-methylphenyl)(3-methoxypyridin-2-yl)methanone]	100 to 500 nM	< 100 nM	–
COc1ccccc1C(=N)c1cccc(C)c1-c1ccc2nc(N)c(N3C[C@@H]4C[C@H]3CO4)cc2c1 [Example 188, 3-((1S,4S)-2-oxa-5-azabicyclo[2.2.1]heptan-5-yl)-6-(2-(imino(2-methoxyphenyl)methyl)-6-methylphenyl)quinolin-2-amine]	501 to 1000 nM	100 to 500 nM	–
Cc1cccnc1C(=O)c1cccc(C)c1-c1ccc2nc(N)c(N3CCOCC3)cc2c1 [Example 189, (2-(2-amino-3-morpholinoquinolin-6-yl)-3-methylphenyl)(3-methylpyridin-2-yl)methanone]	501 to 1000 nM	100 to 500 nM	–
Cc1cccc(/C(=N/O)c2ccccc2)c1-c1ccc2nc(N)c(N3CCOCC3)cc2c1 [Example 190, (E)-(2-(2-amino-3-morpholinoquinolin-6-yl)-3-methylphenyl)(phenyl)methanone oxime]	–	< 100 nM	100 to 500 nM
CO/N=C(/c1ccccc1)c1cccc(C)c1-c1ccc2nc(N)c(N3CCOCC3)cc2c1 [Example 191, (Z)-(2-(2-amino-3-morpholinoquinolin-6-yl)-3-methylphenyl)(phenyl)methanone O-methyl oxime]	1010 to 5000 nM	< 100 nM	–
Nc1nc2ccc(-c3c(CC4OCCO4)cccc3C(=O)N3CCCC3)cc2cc1N1CCOCC1 [Example 192, (3-((1,3-dioxolan-2-yl)methyl)-2-(2-amino-3-morpholinoquinolin-6-yl)phenyl)(pyrrolidin-1-yl)methanone]	100 to 500 nM	< 100 nM	–
Cc1ccccc1C(N)c1cccc(C)c1-c1ccc2nc(N)c(N3CCOCC3)cc2c1 (stereo not shown) [Example 193, 6-(2-(amino(o-tolyl)methyl)-6-methylphenyl)-3-morpholinoquinolin-2-amine]	< 100 nM	< 100 nM	–
Cc1cccnc1C(N)c1cccc(C)c1-c1ccc2nc(N)c(N3CCOCC3)cc2c1 (stereo not shown) [Example 194, 6-(2-(amino(3-methylpyridin-2-yl)methyl)-6-methylphenyl)-3-morpholinoquinolin-2-amine]	100 to 500 nM	501 to 1000 nM	–
COc1ccccc1C(N)c1cccc(C)c1-c1ccc2nc(N)c(N3CCOCC3)cc2c1 (stereo not shown) [Example 195, 6-(2-(amino(2-methoxyphenyl)methyl)-6-methylphenyl)-3-morpholinoquinolin-2-amine]	< 100 nM	< 100 nM	–
Cc1cccc(C(N)c2ccccn2)c1-c1ccc2nc(N)c(N3CCOCC3)cc2c1 (stereo not shown) [Example 196, 6-(2-(amino(pyridin-2-yl)methyl)-6-methylphenyl)-3-morpholinoquinolin-2-amine]	100 to 500 nM	100 to 500 nM	–
Cc1cccc(C(N)c2ncccc2Cl)c1-c1ccc2nc(N)c(N3CCOCC3)cc2c1 (stereo not shown) [Example 197, 6-(2-(amino(3-chloropyridin-2-yl)methyl)-6-methylphenyl)-3-morpholinoquinolin-2-amine]	100 to 500 nM	100 to 500 nM	–
COc1cccnc1C(N)c1cccc(C)c1-c1ccc2nc(N)c(N3CCOCC3)cc2c1 (stereo not shown) [Example 198, 6-(2-(amino(3-methoxypyridin-2-yl)methyl)-6-methylphenyl)-3-morpholinoquinolin-2-amine]	< 100 nM	100 to 500 nM	–
Cc1cccc(C(O)c2ccccc2)c1-c1ccc2nc(N)c(N3CCOCC3)cc2c1 (stereo not shown) [Example 199, (2-(2-amino-3-morpholinoquinolin-6-yl)-3-methylphenyl)(phenyl)methanol]	100 to 500 nM	< 100 nM	–

Now from value to compound:

IC50 ([1]; Homo sapiens, HEK293, 24 h)	IC50 (BACE1)	IC50 [1]	SMILES
1010 to 5000 nM	< 100 nM	–	Cc1cccc(Cc2cccc(C#N)c2)c1-c1ccc2nc(N)c(N3CCOCC3)cc2c1 [Example 200, 3-(2-(2-amino-3-morpholinoquinolin-6-yl)-3-methylbenzyl)benzonitrile]
1010 to 5000 nM	< 100 nM	–	Cc1cccc(Cc2ccc(F)cc2)c1-c1ccc2nc(N)c(N3CCOCC3)cc2c1 [Example 201, 6-(2-(4-fluorobenzyl)-6-methylphenyl)-3-morpholinoquinolin-2-amine]
1010 to 5000 nM	< 100 nM	–	Cc1cccc(Cc2ccccc2F)c1-c1ccc2nc(N)c(N3CCOCC3)cc2c1 [Example 202, 6-(2-(2-fluorobenzyl)-6-methylphenyl)-3-morpholinoquinolin-2-amine]
> 5000 nM	< 100 nM	–	COc1cccc(Cc2cccc(C)c2-c2ccc3nc(N)c(N4CCOCC4)cc3c2)c1 [Example 203, 6-(2-(3-methoxybenzyl)-6-methylphenyl)-3-morpholinoquinolin-2-amine]
> 5000 nM	501 to 1000 nM	–	Cc1cccc(-n2cc(Cl)cn2)c1-c1ccc2nc(N)c(N3CCOCC3)cc2c1 [Example 204, 6-(2-(4-chloro-1H-pyrazol-1-yl)-6-methylphenyl)-3-morpholinoquinolin-2-amine]
< 100 nM	< 100 nM	–	Cc1cccc(C(=O)N2CCCC2)c1-c1ccc2nc(N)c(C3CCOC(C)(C)C3)cc2c1 (stereo not shown) [Example 205, (2-(2-amino-3-(2,2-dimethyltetrahydro-2H-pyran-4-yl)quinolin-6-yl)-3-methylphenyl)(pyrrolidin-1-yl)methanone]
100 to 500 nM	< 100 nM	–	Cc1cccc(C(=O)N2CCCC2)c1-c1ccc2nc(N)c(C3CCCOCC3)cc2c1 (stereo not shown) [Example 206, (2-(2-amino-3-(oxepan-4-yl)quinolin-6-yl)-3-methylphenyl)(pyrrolidin-1-yl)methanone]
1010 to 5000 nM	100 to 500 nM	–	Cc1cccc(C(=O)N2CCCC2)c1-c1ccc2nc(N)c(C3CCCO3)cc2c1 (stereo not shown) [Example 207, (2-(2-amino-3-(tetrahydrofuran-2-yl)quinolin-6-yl)-3-methylphenyl)(pyrrolidin-1-yl)methanone]
100 to 500 nM	< 100 nM	–	Cc1cccc(COc2cc(C(F)(F)F)ccc2Cl)c1-c1ccc2nc(N)c(N3CCOCC3)cc2c1 [Example 208, 6-(2-((2-chloro-5-(trifluoromethyl)phenoxy)methyl)-6-methylphenyl)-3-morpholinoquinolin-2-amine]
